Counter-ions that a name gives are not always drawn. Like-named read-outs stand apart in the source and are kept apart here.
Experiments:
[1] = target: recombinant rat PIM-3 (Rattus norvegicus (Rat), UniProt O70444); test: PIM-3 Enzyme Assay; settings: read-out: PIM-3 IC50, 30 μM ATP, 0.5 nM PIM-3
Procedure: (§4) The amount of radiolabeled product is then measured by liquid scintillation counting. The final buffer conditions were as follows: 20 mM K^+MOPS, pH 7.4, 10 mM MgCl2, 0.005% Tween-20, 1 mM DTT. […] Incubations were carried out for 60 min at 22° C. and quenched with 75 μL of 200 mM H3PO4, filtered through a Whatman P81 plate and washed (1×200 μL and 5×100 μL ) with 200 mM H3PO4. Liquid scintillation cocktail (50 μL ) was then added per well, and the plate was counted for 30 s/well using a TopCount NXT.
(§5) One-μL aliquots of these were then transferred to the assay mixtures above to give a final concentration of DMSO of 2%. […] For each plate, percent of control (POC) values were calculated for each well. IC50's were estimated from the POC's using a standard 4-parameter logistic model. The IC50 is defined as the concentration of inhibitor at which the POC equals 50 for the fitted curve.

[2] = target: PIM-1 (Homo sapiens (Human), UniProt P11309); test: PIM-1 Enzyme Assay; assay type: biochemical; settings: 35 μM ATP, 0.25 nM PIM-1
Summary of the method: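 Radiometric kinase assay in 20 mM K+MOPS pH 7.4, 10 mM MgCl2, 0.005% Tween-20, 1 mM DTT, 2% DMSO final; 60 min at 22° C, stopped with H3PO4, product captured on P81 filter and counted by scintillation. IC50 from 4-parameter logistic fit of percent of control.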

[3] = test system: PC3 (Androgen independent prostate cancer); test: Cellular Proliferation Assay, cell line A; assay type: cell-based; settings: PC3, 72 hours, CelltiterBlue; read-out: Cell Line A antiproliferative IC50
Procedure: (§1) The assay for determination of the antiproliferative activity of multiple Pim inhibitors in the JAK2-driven cell lines was conducted as follows. Cells were plated out to 96-well plates at an initial density of 10,000 cells/well in 95 pt. Compounds were prepared at […] in DMSO by conducting 3-fold serial dilutions to give a 10-point dosing curve having a high dose of 1000 μM. Aliquots (5 μt) of these dilutions were then transferred to the appropriate wells of the 96-well plates containing cells to yield a final DMSO concentration of 0.5%. The cells were then incubated with compound for 72 hours at 37° C., 5% CO2. CelltiterBlue reagent (Promega, Catalog #: G8080) was then added (20 μL/well) and incubated at 37° C., 5% CO2 for 1-8 hours depending on the cell line being analyzed. The plate was then quantified employing a fluorescence plate reader (Model: Gemini [Molecular Devices]; Settings: 560 nm (Ex)/590 nm (Em) 570 nm (cut-off) [CellTiter Blue Assay].
(§2) The values for each well were then converted to a percent of untreated control (POC). These POC values were then plotted as a function of compound concentration. A 4-parameter curve-fit analysis was performed for each compound dilution and an IC50 value was calculated from this curve.
(§3) Cell lines • A: PC3 (Androgen independent prostate cancer) • B: K562 (Ph+chronic myelogenous leukemia) • C: MV4-11 (Acute myelogenous leukemia) • D: BxPC3 (Pancreatic Cancer) • E: HepG2 (Hepatocellular Carcinoma) • F: BaF3 (Mouse pro-B-cell line) • G: BaF3 TEL-JAK2 (Mouse pro-B-cell transformed with TEL-JAK2 fusion) • H: BaF2 BCR-Ab1 (Mouse pro-B-cell transformed with BCR-Ab1 fusion)

[4] = test system: BaF2 BCR-Ab1 (Mouse pro-B-cell transformed with BCR-Ab1 fusion); test: Cellular Proliferation Assay, cell line H; assay type: cell-based; settings: BaF2 BCR-Ab1, 72 hours, CelltiterBlue, read-out: Cell Line H antiproliferative IC50
Procedure: as §1, §2, §3

[5] = test system: BaF3 TEL-JAK2 (Mouse pro-B-cell transformed with TEL-JAK2 fusion); test: Cellular Proliferation Assay, cell line G; assay type: cell-based; settings: BaF3 TEL-JAK2, 72 hours, CelltiterBlue, read-out: Cell Line G antiproliferative IC50
Procedure: as §1, §2, §3

[6] = test system: K562 (Ph+chronic myelogenous leukemia); test: Cellular Proliferation Assay, cell line B; assay type: cell-based; settings: Homo sapiens; K562, 72 hours, CelltiterBlue; read-out: Cell Line B antiproliferative IC50
Procedure: as §1, §2, §3

[7] = test system: BaF3 (Mouse pro-B-cell line); test: Cellular Proliferation Assay, cell line F; assay type: cell-based; settings: BaF3, 72 hours, CelltiterBlue, read-out: Cell Line F antiproliferative IC50
Procedure: as §1, §2, §3

[8] = target: GST-tagged recombinant full-length human PIM-2 (Homo sapiens (Human), UniProt Q9P1W9); test: PIM-2 Enzyme Assay; settings: read-out: PIM-2 IC50, 4 μM ATP, […] PIM-2
GST-tagged recombinant full-length human PIM-2, sequence (Q9P1W9 whole entry): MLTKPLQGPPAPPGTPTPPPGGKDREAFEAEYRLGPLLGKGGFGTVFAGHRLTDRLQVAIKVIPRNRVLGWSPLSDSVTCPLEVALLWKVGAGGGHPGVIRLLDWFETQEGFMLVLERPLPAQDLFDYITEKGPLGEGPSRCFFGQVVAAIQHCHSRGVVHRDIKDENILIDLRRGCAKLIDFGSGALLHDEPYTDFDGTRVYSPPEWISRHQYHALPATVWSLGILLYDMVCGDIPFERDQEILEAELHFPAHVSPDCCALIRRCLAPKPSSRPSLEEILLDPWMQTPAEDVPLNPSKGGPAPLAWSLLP
Procedure: as §4, §5

[9] = test system: HepG2 (Hepatocellular Carcinoma); test: Cellular Proliferation Assay, cell line E; assay type: cell-based; settings: Homo sapiens; HepG2, 72 hours, CelltiterBlue; read-out: Cell Line E antiproliferative IC50
Procedure: as §1, §2, §3

[10] = test system: BxPC3 (Pancreatic Cancer); test: Cellular Proliferation Assay, cell line D; assay type: cell-based; settings: Homo sapiens, BXPC-3; BxPC3, 72 hours, CelltiterBlue; read-out: Cell Line D antiproliferative IC50
Procedure: as §1, §2, §3

PIM-1, sequence (P11309 whole entry, species assumed): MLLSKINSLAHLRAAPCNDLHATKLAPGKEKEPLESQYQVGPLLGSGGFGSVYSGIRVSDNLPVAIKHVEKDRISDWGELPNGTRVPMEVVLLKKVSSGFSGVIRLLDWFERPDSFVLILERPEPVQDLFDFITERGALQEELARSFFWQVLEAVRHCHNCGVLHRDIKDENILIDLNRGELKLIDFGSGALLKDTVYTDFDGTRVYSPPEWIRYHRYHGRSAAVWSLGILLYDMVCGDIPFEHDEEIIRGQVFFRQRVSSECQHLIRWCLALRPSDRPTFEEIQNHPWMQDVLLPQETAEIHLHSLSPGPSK

IC50 [1]	IC50 [2]	IC50 [3]	IC50 [5]	IC50 [6]	IC50 [7]	IC50 [8]	IC50 [9]	IC50 [10]	IC50 ([1]; dihydrochloride)	IC50 ([2]; dihydrochloride)	IC50 ([8]; dihydrochloride)	SMILES	IC50 [4]
4.4 nM	1.6 nM	< 10000 nM	< 2000 nM	> 10000 nM	< 2000 nM	1110 nM	–	–	–	–	–	c1cc(NC2CCNCC2)c2nc(-c3nnc4ccccn34)ccc2c1 [Example 1, 2-([1,2,4]Triazolo[4,3-a]pyridin-3-yl)-N-(piperidin-4-yl)quinolin-8-amine di-trifloroacetate]	< 10000 nM
–	–	–	–	–	–	–	–	–	4 nM	2 nM	110 nM	c1cc(OC2CCCNCC2)c2nc(-c3nnc4ccccn34)ccc2c1 (centres unmarked) [Example 52, 2-([1,2,4]triazolo[4,3-a]pyridin-3-yl)-8-(azepan-4-yloxy)quinoline dihydrochloride]	–
20 nM	5 nM	–	–	–	–	2020 nM	–	–	–	–	–	c1cc(N[C@@H]2CCNC2)c2nc(-c3nnc4ccccn34)ccc2c1 [Example 5, (R)-2-([1,2,4]Triazolo[4,3-a]pyridin-3-yl)-N-(pyrrolidin-3-yl)quinolin-8-amine]	–

Second part, the compound before the results:

SMILES	IC50 [1]	IC50 [2]	IC50 [3]	IC50 [5]	IC50 [6]	IC50 [7]	IC50 [8]	IC50 [9]	IC50 [10]	IC50 ([1]; dihydrochloride)	IC50 ([2]; dihydrochloride)	IC50 ([8]; dihydrochloride)	IC50 [4]
N[C@H]1CC[C@H](Oc2cccc3ccc(-c4nnc5ccccn45)nc23)CC1 [Example 17, (trans)-4-(2-([1,2,4]Triazolo[4,3-a]pyridin-3-yl)quinolin-8-yloxy)cyclohexanamine]	3 nM	–	< 2000 nM	< 2000 nM	< 10000 nM	< 2000 nM	134 nM	< 10000 nM	< 10000 nM	–	–	–	< 2000 nM
Fc1cc(O[C@H]2CCNC[C@H]2F)c2nc(-c3nnc4ccccn34)ccc2c1 (relative stereo) [Example 88, 2-([1,2,4]triazolo[4,3-a]pyridin-3-yl)-6-fluoro-8-((cis)-3-fluoropiperidin-4-yloxy)quinoline]	24 nM	8 nM	–	–	–	–	502 nM	–	–	–	–	–	–
Fc1cc(OC2CCNCCC2F)c2nc(-c3nnc4ccccn34)ccc2c1 (single isomer, unassigned) [Example 120, 2-([1,2,4]triazolo[4,3-a]pyridin-3-yl)-6-fluoro-8-((cis)-5-fluoroazepan-4-yloxy)quinoline]	10.9 nM	11 nM	–	–	–	–	959 nM	–	–	–	–	–	–
Fc1cc(OC2CCNCCC2F)c2nc(-c3nnc4ccccn34)ccc2c1 (single isomer, unassigned) [Example 121, 2-([1,2,4]triazolo[4,3-a]pyridin-3-yl)-6-fluoro-8-(trans-5-fluoroazepan-4-yloxy)quinoline]	16.1 nM	30.5 nM	–	–	–	–	520 nM	–	–	–	–	–	–

Reference: US8575145B2, “Triazolopyridine compounds as PIM kinase inhibitors” (Array BioPharma Inc., priority 2008, dated 2013)
